# Measurements reported in patent publication US20040024024A1, “Aromatic sulfone hydroxamates and their use as protease inhibitors” (priority 2001, published 2004).
# Columns and labels:
# Assay type in all cases: biochemical
# [1] = biological target: T1, Human recombinant MMP-9 (Homo sapiens, UniProt P14780); assay: In vitro MMP inhibition, Ki determination (fluorogenic substrate II)
# T1 construct: made in house; host or cells: MMP-9-transfected HT1080 cells (spent media)
# Procedure, shortened: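 MMP-9 proenzyme purified from transfected HT1080 cell media, activated with APMA, trypsin or recombinant MMP-3; hydroxamates diluted in pH 7.5 Tris/NaCl/CaCl2 buffer. Cleavage of 4 μM MCA/Dpa substrate II followed by fluorescence (ex 330/em 420 nm), 1 h at room temperature. Ki from Morrison-equation fit, substrate at/below Km, uncorrected.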
# [2] = biological target: T2, Human recombinant MMP-2 (Homo sapiens, UniProt P08253); assay: In vitro MMP inhibition, IC50 determination (fluorogenic substrate I); conditions: value outside parenthesis
# T2 construct: made in house; host or cells: MMP-2-transfected p2AHT2 cells
# T2 sequence (P08253 110-660): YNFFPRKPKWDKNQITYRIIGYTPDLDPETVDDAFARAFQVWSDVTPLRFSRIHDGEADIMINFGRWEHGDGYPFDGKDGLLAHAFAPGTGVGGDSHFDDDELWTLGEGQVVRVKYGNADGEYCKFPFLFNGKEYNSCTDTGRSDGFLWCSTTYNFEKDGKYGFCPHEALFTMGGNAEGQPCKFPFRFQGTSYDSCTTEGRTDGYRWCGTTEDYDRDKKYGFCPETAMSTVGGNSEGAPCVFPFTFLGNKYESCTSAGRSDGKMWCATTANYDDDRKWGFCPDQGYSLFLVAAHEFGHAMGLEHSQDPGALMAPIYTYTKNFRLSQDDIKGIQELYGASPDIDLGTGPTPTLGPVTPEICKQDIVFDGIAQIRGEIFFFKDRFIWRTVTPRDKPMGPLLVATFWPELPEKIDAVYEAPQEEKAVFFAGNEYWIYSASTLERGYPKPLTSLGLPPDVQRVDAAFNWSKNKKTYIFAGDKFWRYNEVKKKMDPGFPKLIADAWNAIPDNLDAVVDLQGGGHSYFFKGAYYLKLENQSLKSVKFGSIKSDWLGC
# Procedure, shortened: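 IC50 was derived from the concentration-dependent fall in fluorescence (ex 328, em 415 nm) on Gly-Leu cleavage of 4 μM MCA/Dpa-quenched substrate I. Assays ran at room temperature in pH 7.5 Tris/NaCl/CaCl2/Brij buffer with MMP-2 activated by trypsin or APMA; inhibitors were diluted from 1% DMSO stocks.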
# [3] = biological target: T3, Human recombinant MMP-13 (Homo sapiens, UniProt P45452); assay: as above; conditions: value outside parenthesis
# T3 construct: made in house; host or cells: baculovirus / insect cells
# Procedure, shortened: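 Fluorescence at 415 nm (excitation 328 nm) reports Gly-Leu cleavage of 4 μM quenched methoxycoumarin peptide substrate I. Human recombinant MMP-13, activated by trypsin or APMA, was incubated at room temperature with varied inhibitor concentrations in pH 7.5 Tris/NaCl/CaCl2 buffer; IC50 derived from reduced fluorescence.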
# T1 sequence (P14780 107-707 limits assumed): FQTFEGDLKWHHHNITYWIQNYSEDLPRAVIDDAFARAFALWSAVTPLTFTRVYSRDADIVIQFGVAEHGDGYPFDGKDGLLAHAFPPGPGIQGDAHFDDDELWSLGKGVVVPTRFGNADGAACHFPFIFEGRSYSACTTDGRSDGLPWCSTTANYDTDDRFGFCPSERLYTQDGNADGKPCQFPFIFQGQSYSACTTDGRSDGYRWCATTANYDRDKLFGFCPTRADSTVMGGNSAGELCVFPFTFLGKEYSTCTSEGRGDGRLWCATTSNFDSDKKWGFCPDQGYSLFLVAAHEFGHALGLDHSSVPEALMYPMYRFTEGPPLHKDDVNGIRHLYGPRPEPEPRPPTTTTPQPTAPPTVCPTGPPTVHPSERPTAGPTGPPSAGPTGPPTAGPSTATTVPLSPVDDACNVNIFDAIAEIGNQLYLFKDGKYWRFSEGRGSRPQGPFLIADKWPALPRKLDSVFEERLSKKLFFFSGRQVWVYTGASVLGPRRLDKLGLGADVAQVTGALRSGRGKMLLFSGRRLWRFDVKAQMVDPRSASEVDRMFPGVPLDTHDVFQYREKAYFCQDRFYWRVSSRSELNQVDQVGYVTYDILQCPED
Compound,Ki ([1]; value in parentheses) [nM],also measured
O=C(NCCSc1ccc(S(=O)(=O)C2(C(=O)NO)CCOCC2)cc1)c1nc2ccccc2s1 [Example 598],705,–
O=C(NO)C1(S(=O)(=O)c2ccc(OCCc3cccc(-c4cccc(F)c4)c3)cc2)CCOCC1 [Example 111],–,Ki ([1]; value in parenthesis): 2680 nM; IC50 [2]: 559 nM; IC50 [3]: 2 nM
O=C(NO)C1(S(=O)(=O)c2ccc(OCCCc3cccc(-c4ccc(O)cc4)c3)cc2)CCOCC1 [Example 529],1870,–
COCCN1CCC(C(=O)NO)(S(=O)(=O)c2ccc(OCCCc3cccc(-c4ccc(Cl)cc4)c3)cc2)CC1 [Example 50],–,"Ki ([1]; substrate (II) 4 μM, 1 hr room temperature, apparent Ki, values in parenthesis): 304 nM"
CCCCc1ccc(COc2ccc(S(=O)(=O)C3(C(=O)NO)CCOCC3)cc2)cn1 [Example 551],48.2,–
Cc1ccc(-c2cccc(CCOc3ccc(S(=O)(=O)C4(C(=O)NO)CCOCC4)cc3)c2)cc1C [Example 117],–,Ki ([1]; value in parenthesis): 9910 nM; IC50 [2]: 1740 nM; IC50 [3]: 16 nM
CCCCc1ccc(CCCOc2ccc(S(=O)(=O)C3(C(=O)NO)CCOCC3)cc2)cn1 [Example 533],141,–
COCCN1CCC(C(=O)NO)(S(=O)(=O)c2ccc(OCCCc3cccc(-c4cccc(F)c4)c3)cc2)CC1 [Example 511],38.5,–
CCc1ccc(CCCOc2ccc(S(=O)(=O)C3(C(=O)NO)CCOCC3)cc2)cn1 [Example 535],128,–
COCCN1CCC(C(=O)NO)(S(=O)(=O)c2ccc(OCCNC(=O)c3cc4ccccc4o3)cc2)CC1 [Example 553],71.2,–
COCCN1CCC(C(=O)NO)(S(=O)(=O)c2ccc(OCCCc3cccc(-c4cccnc4)c3)cc2)CC1 [Example 509],50.9,–
O=C(NO)C1(S(=O)(=O)c2ccc(OCCCc3cccc(-c4cccc(O)c4)c3)cc2)CCOCC1 [Example 530],220,–
O=C(NCCSc1ccc(S(=O)(=O)C2(C(=O)NO)CCN(C3CC3)CC2)cc1)c1cc2ccccc2o1 [Example 542],922,–
O=C(NO)C1(S(=O)(=O)c2ccc(OCCc3ccc(-c4ccc(O)cc4)cc3)cc2)CCOCC1 [Example 531],774,–
O=C(NO)C1(S(=O)(=O)c2ccc(OCCc3ccccn3)cc2)CCOCC1 [Example 556],212,–
O=C(NO)C1(S(=O)(=O)c2ccc(OCCCc3cccc(-c4ccc(F)c(F)c4)c3)cc2)CCOCC1 [Example 170],–,Ki ([1]; value in parenthesis): 1500 nM; IC50 [2]: 1610 nM; IC50 [3]: 3.3 nM
Cc1cc(-c2cccc(CCCOc3ccc(S(=O)(=O)C4(C(=O)NO)CCOCC4)cc3)c2)ccc1F [Example 168],–,Ki ([1]; value in parenthesis): 6500 nM; IC50 [2]: 3430 nM; IC50 [3]: 34.3 nM
CCCCC(=O)CCCOc1ccc(S(=O)(=O)C2(C(=O)NO)CCOCC2)cc1 [Example 506],11.4,–
CN1CCC(C(=O)NO)(S(=O)(=O)c2ccc(SCCNC(=O)c3cc4ccccc4o3)cc2)CC1 [Example 536],3400,–
O=C(NO)C1(S(=O)(=O)c2ccc(OCCCOCc3ccncc3)cc2)CCOCC1 [Example 555],50,–
O=C(NO)C1(S(=O)(=O)c2ccc(OCCCc3cccc(-c4ccc(Cl)cc4Cl)c3)cc2)CCOCC1 [Example 171],–,Ki ([1]; value in parenthesis): 6600 nM; IC50 [2]: 2290 nM; IC50 [3]: 62.8 nM
COCCN1CCC(C(=O)NO)(S(=O)(=O)c2ccc(OCCc3cccc(-c4ccccn4)c3)cc2)CC1 [Example 548],279,–
O=C(NO)C1(S(=O)(=O)c2ccc(OCCOc3cncnc3)cc2)CCOCC1 [Example 554],442,–
